Counter-ions that a name gives are not always drawn.
What was measured:
Format in all cases: in vivo, human
[1] = tested on: patients with FMS; experiment: Interference from pain on energy, mood and concentration, 10 point visual analogue scale
Procedure: (§1) Fibromyalgia patients were treated with methylphenidate and the effects on concentration, energy, and feelings of well-being were measured. […] Pain intensity was also recorded on a 10 point visual analogue scale, with the endpoint of 1 indicating no pain, and the endpoint of 10 indicating severe pain. The four measures were administered to 48 patients with FMS, before receiving methylphenidate and post methylphenidate treatment. The FMS patients were female and met the new ACR criteria for FMS. Methylphenidate dosage was clinically determined and ranged from 10 to 60 mg per day. The median methylphenidate usage at re-testing was 30 days.
(§2) The mean age of the FMS sample was 48.3±12.3 years. […] The largest change occurred with concentration. However, a significant change in pain intensity with methylphenidate treatment was not observed.

[2] = tested on: patients with FMS; experiment: Word naming speed (Stroop Color and Word Test) before and after methylphenidate; details: 10 to 30 mg per day, median 30 days
From the text: Abnormalities in naming speed are an unappreciated feature of cognitive dysfunction in fibromyalgia (FMS). Approximately 50% of FMS patients with memory problems name words at a rate that is 203 milliseconds slower than normal. The connection between naming speed and memory loss in FMS is unclear. Stimulant medications like methylphenidate have been known to influence naming speed and could provide clues to the relationship between cognitive functioning and naming speed. The purpose of this experiment was to determine if faster naming speed is connected to positive change in cognitive functioning in patients with fibromyalgia.
(§3) A word naming speed measure (Stroop Color and Word Test) and a measure of cognitive functioning (Mental Clutter Scale, MCS) were administered to 15 patients with FMS, before receiving methylphenidate and post-treatment with methylphenidate. The FMS patients were female, met American College of Rheumatology criteria for FMS, and had memory problems. Methylphenidate dosage was clinically determined and ranged from 10 to 30 mg per day. The median time of methylphenidate usage at re-testing was 30 days. Naming speed was determined by the number of words named in a 45 second time period.
(§4) The mean age of the FMS sample was 46.3±11.6 years with 14.1±2.1 years of education. […] Pre-methylphenidate, the patients read 77.4 words in 45 seconds (581.4 msec/word). Post-methylphenidate, the patients read 93 words in 45 seconds (483.9 msec/word). This represents a 97.5 millisecond benefit from methylphenidate. The normative sample reads 108 words in 45 seconds or 417 msec/word.

[3] = tested on: patients with FMS; experiment: Pain intensity, 10 point visual analogue scale
Procedure: as §1, §2

[4] = tested on: patients with FMS; experiment: Mental Clutter Scale (MCS), Cognition and Mental Clarity subscales, before and after methylphenidate; details: 10 to 30 mg per day, median 30 days
Procedure: Three studies involving a sample of over 800 subjects were carried out to determine the structure and stability of a new scale, the Mental Clutter Scale (MCS) (Leavitt & Katz, 2011, “Development of the Mental Clutter Scale,” Psychol. Rep. 109(2): 445-52). An initial pool of 13 items was formulated from self-statements of patients presenting with a history of memory complaints and a review of the literature. Seven items relating to problems with cognitive skills were rated on a 10-point Likert scale from 1=no problem, to 10=severe problem. Six items relating to the frequency of diminished mental clarity were rated on a 10-point Likert scale from 1=not at all, to 10=all the time.
as §3, §4

## COC(=O)C(c1ccccc1)C1CCCCN1 (racemic) [methylphenidate, d,l (racemic)-threo-methyl α-phenyl-2-piperidineacetate hydrochloride]
[1]; 48 female FMS patients, 10 to 60 mg per day, median 30 days, VAS 1-10, pre-methylphenidate 6.0 ± 2.6, lower scores = improved, p < 0.05
  Post-methylphenidate score, pain interference on Mood: 5.3 ± 2.5
[1]; 48 female FMS patients, 10 to 60 mg per day, median 30 days, VAS 1-10, pre-methylphenidate 6.5 ± 2.3, lower scores = improved
  Post-methylphenidate score, pain interference on Concentration: 5.4 ± 2.4
[1]; 48 female FMS patients, 10 to 60 mg per day, median 30 days, VAS 1-10, pre-methylphenidate 6.6 ± 2.4, lower scores = improved
  Post-methylphenidate score, pain interference on Energy: 5.9 ± 2.2
[1]; pre vs post methylphenidate, p<0.001, largest change
  change in pain interference on concentration, repeated measures ANOVA: significant reduction
[1]; pre vs post methylphenidate, p<0.01
  change in pain interference on energy, repeated measures ANOVA: significant reduction
[1]; pre vs post methylphenidate, p<0.05
  change in pain interference on mood, repeated measures ANOVA: significant reduction
[2]; pre-methylphenidate 77.4, normative sample 108
  words read in 45 seconds, post-methylphenidate: 93 words in 45 seconds
[2]; pre-methylphenidate 581.4, normative sample 417
  naming time per word, post-methylphenidate: 483.9 msec/word
[2]; pre minus post
  benefit from methylphenidate in naming time per word: 97.5 millisecond
[3]; 48 female FMS patients, 10 to 60 mg per day, median 30 days, VAS 1-10, pre-methylphenidate 6.7 ± 1.9, lower scores = improved
  Post-methylphenidate score, Pain intensity: 6.4 ± 2.4
[3]; pre vs post methylphenidate
  significant change in pain intensity with methylphenidate treatment: not observed
[4]; 15 FMS patients, pre-methylphenidate 48.1 ± 16.5, lower scores represent improved performance, p < 0.01
  Post-methylphenidate score, Mental Clarity subscale of the Mental Clutter Scale: 29.2 ± 13.6
[4]; 15 FMS patients, pre-methylphenidate 52.8 ± 15.6, lower scores represent improved performance, p < 0.01
  Post-methylphenidate score, Cognition subscale of the Mental Clutter Scale: 35.1 ± 11.3
[4]; pre vs post
  improvement with methylphenidate on Cognition (MCS): 17 point
  improvement with methylphenidate on Mental Clarity (MCS): 19 point
